Results taken from ChEMBL document CHEMBL1649218, “New treatment option for second-stage African sleeping sickness: in vitro and in vivo efficacy of aza analogs of DB289” (Antimicrob Agents Chemother, 2009).
In brackets after ≈: the same amount, converted by molar mass. Activity calls are given as the source filed them. The rule behind the calls is not given here.

Legend:
[1] = system: Trypanosoma brucei rhodesiense; test: Antitrypanosomal activity against wild-type Trypanosoma brucei rhodesiense STIB900 infected in NMRI mouse assessed as survival of mouse at 75 mg/kg, po for 4 days; format: functional
[2] = system: Trypanosoma brucei rhodesiense; test: Antitrypanosomal activity against wild-type Trypanosoma brucei rhodesiense STIB900 infected in NMRI mouse assessed as cure from infection at 75 mg/kg, po for 4 days; format: functional, organism-based; parameters: dose 75 mg/kg
[3] = system: Trypanosoma brucei brucei; test: Antitrypanosomal activity against Trypanosoma brucei brucei GVR35 infected in NMRI mouse CNS model assessed as cure from infection at 20 mg/kg, ip for 5 days; format: functional, organism-based; parameters: dose 20 mg/kg
[4] = Ratio of IC50 for Trypanosoma brucei gambiense STIB930 to IC50 for wild-type Trypanosoma brucei rhodesiense […]; format: functional
[5] = system: Trypanosoma brucei rhodesiense; test: Antitrypanosomal activity against wild-type Trypanosoma brucei rhodesiense STIB900 by Alamar blue assay; format: functional, organism-based
[6] = system: Trypanosoma brucei rhodesiense; test: Antitrypanosomal activity against melasoprol-resistant Trypanosoma brucei rhodesiense STIB900 by Alamar blue assay; format: functional, organism-based
[7] = system: Trypanosoma brucei rhodesiense; test: Antitrypanosomal activity against wild-type Trypanosoma brucei rhodesiense STIB900 infected in NMRI mouse assessed as survival of mouse at 5 mg/kg, ip for 4 days; format: functional; conditions: route intraperitoneal
[8] = system: Trypanosoma brucei brucei; test: Antitrypanosomal activity against Trypanosoma brucei brucei AT1KO by Alamar blue assay; format: functional, organism-based
[9] = system: Trypanosoma brucei gambiense; test: Antitrypanosomal activity against Trypanosoma brucei gambiense STIB930 by Alamar blue assay; format: functional, organism-based
[10] = system: Trypanosoma brucei brucei; test: Antitrypanosomal activity against Trypanosoma brucei brucei GVR35 infected in NMRI mouse CNS model assessed as survival of mouse at 10 mg/kg, ip for 10 days; format: functional; conditions: route intraperitoneal
[11] = system: Trypanosoma brucei rhodesiense; test: Antitrypanosomal activity against pentamidine-resistant Trypanosoma brucei rhodesiense STIB900 by Alamar blue assay; format: functional, organism-based
[12] = system: Trypanosoma brucei gambiense; test: Antitrypanosomal activity against Trypanosoma brucei gambiense ITMAP141267 by Alamar blue assay; format: functional, organism-based
[13] = system: Trypanosoma brucei rhodesiense; test: Ratio of IC50 for melasoprol-resistant Trypanosoma brucei rhodesiense STIB900 to IC50 for wild-type Trypanosoma brucei rhodesiense […]; format: functional
[14] = Ratio of IC50 for Trypanosoma brucei gambiense ITMAP141267 to IC50 for wild-type Trypanosoma brucei rhodesiense […]; format: functional
[15] = system: Trypanosoma brucei gambiense; test: Antitrypanosomal activity against Trypanosoma brucei gambiense K03048 by Alamar blue assay; format: functional, organism-based
Mus musculus = test: Toxicity in NMRI mouse CNS model at 25 mg/kg, ip for 10 days; format: organism-based; parameters: dose 25 mg/kg, route intraperitoneal; conditions: in vivo, 240 h
[16] = system: Trypanosoma brucei brucei; test: Ratio of IC50 for Trypanosoma brucei brucei AT1KO to IC50 for Trypanosoma brucei brucei BS221; format: functional
[17] = Ratio of IC50 for Trypanosoma brucei gambiense K03048 to IC50 for wild-type Trypanosoma brucei rhodesiense STIB900; format: functional
[18] = system: Trypanosoma brucei brucei; test: Antitrypanosomal activity against Trypanosoma brucei brucei BS221 by Alamar blue assay; format: functional, organism-based
[19] = system: Trypanosoma brucei brucei; test: Antitrypanosomal activity against Trypanosoma brucei brucei GVR35 infected in NMRI mouse CNS model assessed as survival of mouse at 20 mg/kg, ip for 5 days; format: functional; conditions: route intraperitoneal
[20] = system: Trypanosoma brucei rhodesiense; test: Antitrypanosomal activity against wild-type Trypanosoma brucei rhodesiense STIB900 infected in NMRI mouse assessed as survival of mouse at 20 mg/kg, ip for 4 days; format: functional; conditions: route intraperitoneal
[21] = system: Trypanosoma brucei rhodesiense; test: Ratio of IC50 for pentamidine-resistant Trypanosoma brucei rhodesiense STIB900 to IC50 for wild-type Trypanosoma brucei rhodesiense STIB900; format: functional
[22] = system: Trypanosoma brucei gambiense; test: Ratio of IC50 for Trypanosoma brucei gambiense K03048 to IC50 for Trypanosoma brucei gambiense STIB930; format: functional
[23] = system: Trypanosoma brucei rhodesiense; test: Antitrypanosomal activity against wild-type Trypanosoma brucei rhodesiense STIB900 infected in NMRI mouse assessed as survival of mouse at 15 mg/kg, po for 4 days; format: functional
[24] = system: Trypanosoma brucei rhodesiense; test: Antitrypanosomal activity against wild-type Trypanosoma brucei rhodesiense STIB900 infected in NMRI mouse assessed as cure from infection at 15 mg/kg, po for 4 days; format: functional, organism-based; parameters: dose 15 mg/kg
[25] = system: Trypanosoma brucei rhodesiense; test: Antitrypanosomal activity against wild-type Trypanosoma brucei rhodesiense STIB900 infected in NMRI mouse assessed as survival of mouse at 50 mg/kg, po for 4 days; format: functional

N/C(=N\O)c1ccc(-c2ccc(-c3ccc(/C(N)=N\O)cn3)o2)nc1
MSD [1]: 18 days
Activity [2]: inactive

N=C(N)c1ccc(-c2ccc(-c3ccc(C(=N)N)cc3)o2)cc1 [FURAMIDINE]
Activity [3]: inactive
Ratio IC50 [4]: 5.3
IC50 [5]: 1 ng/mL (≈ 0.00329 µM)
IC50 [6]: 19 ng/mL (≈ 0.0624 µM)
MSD [7]: >46 days
IC50 [8]: 15.8 ng/mL (≈ 0.0519 µM)
IC50 [9]: 5.1 ng/mL (≈ 0.0168 µM)
MSD [10]: >112 days
IC50 [11]: 14.3 ng/mL (≈ 0.047 µM)
IC50 [12]: 3.1 ng/mL (≈ 0.0102 µM)
Ratio IC50 [13]: 19.5
Ratio IC50 [14]: 3.2
IC50 [15]: 4.2 ng/mL (≈ 0.0138 µM)
Activity (Mus musculus): Toxic
Ratio IC50 [16]: 13.1
Ratio IC50 [17]: 4.3
IC50 [18]: 1.2 ng/mL (≈ 0.00394 µM)
MSD [19]: >132.3 days
MSD [20]: >57.75 days
Ratio IC50 [21]: 14.7
Ratio IC50 [22]: 14

CO/N=C(/N)c1ccc(-c2ccc(-c3ccc(/C(N)=N/O)cc3)o2)cc1
MSD [23]: 30.25 days
Activity [24]: inactive
MSD [25]: >56 days
